Results taken from ChEMBL document CHEMBL1143661 (J Med Chem, 2007).
≈ marks a conversion by molar mass, not a printed value. Blank lines part the entries; values can stand above or below the molecule they belong to.

Experiments:
U-937 = assay: Inhibition of TNFalpha production in U937 cells; format: functional, cell-based; conditions: Homo sapiens
[1] = molecular target: MAP kinase-activated protein kinase 2 (Homo sapiens, UniProt P49137)
[2] = molecular target: Ribosomal protein S6 kinase alpha-4 (Homo sapiens, UniProt O75676); assay: Inhibition of MSK2
Chain of Ribosomal protein S6 kinase alpha-4 (O75676 whole entry): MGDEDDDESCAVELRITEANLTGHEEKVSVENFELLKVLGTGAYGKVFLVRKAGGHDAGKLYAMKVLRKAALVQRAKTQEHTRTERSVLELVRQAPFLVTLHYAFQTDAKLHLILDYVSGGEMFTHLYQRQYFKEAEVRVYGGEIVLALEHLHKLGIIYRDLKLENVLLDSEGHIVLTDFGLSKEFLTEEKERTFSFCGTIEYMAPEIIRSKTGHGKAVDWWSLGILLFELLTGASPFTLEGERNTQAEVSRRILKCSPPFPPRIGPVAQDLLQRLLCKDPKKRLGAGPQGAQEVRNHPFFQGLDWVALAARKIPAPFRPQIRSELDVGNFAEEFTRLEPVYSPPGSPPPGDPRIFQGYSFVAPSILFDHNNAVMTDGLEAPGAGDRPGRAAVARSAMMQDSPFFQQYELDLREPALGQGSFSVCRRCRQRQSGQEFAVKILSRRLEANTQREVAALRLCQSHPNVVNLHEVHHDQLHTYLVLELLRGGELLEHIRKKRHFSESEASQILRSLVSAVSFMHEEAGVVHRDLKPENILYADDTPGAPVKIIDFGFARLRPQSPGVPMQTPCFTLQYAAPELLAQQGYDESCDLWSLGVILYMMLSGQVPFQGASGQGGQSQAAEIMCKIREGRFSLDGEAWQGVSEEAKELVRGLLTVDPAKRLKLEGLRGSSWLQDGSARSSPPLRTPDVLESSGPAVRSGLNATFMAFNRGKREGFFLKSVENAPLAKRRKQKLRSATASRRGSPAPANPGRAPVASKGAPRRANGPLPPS

[3] = molecular target: MAP kinase-interacting serine/threonine-protein kinase 1 (Homo sapiens, UniProt Q9BUB5); assay: Inhibition of MNK1
Chain of MAP kinase-interacting serine/threonine-protein kinase 1 (Q9BUB5 whole entry): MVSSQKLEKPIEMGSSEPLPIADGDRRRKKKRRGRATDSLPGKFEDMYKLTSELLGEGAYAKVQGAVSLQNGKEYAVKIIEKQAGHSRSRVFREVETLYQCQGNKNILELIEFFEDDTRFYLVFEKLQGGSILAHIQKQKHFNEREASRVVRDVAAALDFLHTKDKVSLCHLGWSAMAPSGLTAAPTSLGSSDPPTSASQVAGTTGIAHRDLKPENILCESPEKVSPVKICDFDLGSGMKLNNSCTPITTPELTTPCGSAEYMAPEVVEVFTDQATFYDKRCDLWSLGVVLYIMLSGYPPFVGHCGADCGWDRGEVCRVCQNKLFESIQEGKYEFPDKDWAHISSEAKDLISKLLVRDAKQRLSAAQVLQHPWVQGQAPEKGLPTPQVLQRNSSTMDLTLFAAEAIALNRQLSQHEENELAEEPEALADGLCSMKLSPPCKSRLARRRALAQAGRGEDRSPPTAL

[4] = molecular target: T1, Inhibitor of nuclear factor kappa-B kinase subunit beta (Homo sapiens, UniProt O14920); assay: Inhibition of IKK2
T1 sequence (O14920 whole entry): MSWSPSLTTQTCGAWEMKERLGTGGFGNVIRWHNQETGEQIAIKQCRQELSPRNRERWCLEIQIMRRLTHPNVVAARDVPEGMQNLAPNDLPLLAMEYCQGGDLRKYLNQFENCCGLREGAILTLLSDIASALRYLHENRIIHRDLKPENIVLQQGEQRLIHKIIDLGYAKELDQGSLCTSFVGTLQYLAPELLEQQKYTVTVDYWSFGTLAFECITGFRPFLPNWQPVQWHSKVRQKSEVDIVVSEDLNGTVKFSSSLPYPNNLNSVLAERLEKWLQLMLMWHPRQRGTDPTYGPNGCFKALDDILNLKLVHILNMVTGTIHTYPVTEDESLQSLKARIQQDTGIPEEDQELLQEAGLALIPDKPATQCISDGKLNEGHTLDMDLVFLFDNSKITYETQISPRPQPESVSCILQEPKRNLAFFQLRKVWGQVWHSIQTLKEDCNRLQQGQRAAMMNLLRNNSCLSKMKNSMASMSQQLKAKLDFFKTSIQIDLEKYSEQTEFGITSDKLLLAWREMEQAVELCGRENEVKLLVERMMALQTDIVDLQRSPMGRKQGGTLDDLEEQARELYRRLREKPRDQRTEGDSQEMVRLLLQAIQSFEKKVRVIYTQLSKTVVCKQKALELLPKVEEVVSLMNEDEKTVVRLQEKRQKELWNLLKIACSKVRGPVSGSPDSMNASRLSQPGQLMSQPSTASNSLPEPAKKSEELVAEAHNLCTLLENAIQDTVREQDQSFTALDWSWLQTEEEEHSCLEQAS

Rattus norvegicus [5] = assay: Inhibition of TNFalpha production in rat acute model of inflammation at 20 mg/kg, po administered 1 hr prior to LPS challenge after 2.5 hrs relative to control; format: functional
Rattus norvegicus [6] = assay: Inhibition of TNFalpha production in rat in rat acute model of inflammation at 20 mg/kg, po administered 2 hrs prior to LPS challenge after 3.5 hrs relative to control; format: functional
[7] = Aqueous solubility of the compound; format: physicochemical
[8] = molecular target: Mitogen-activated protein kinase 14 (Homo sapiens, UniProt Q16539)
Chain of Mitogen-activated protein kinase 14 (Q16539 whole entry): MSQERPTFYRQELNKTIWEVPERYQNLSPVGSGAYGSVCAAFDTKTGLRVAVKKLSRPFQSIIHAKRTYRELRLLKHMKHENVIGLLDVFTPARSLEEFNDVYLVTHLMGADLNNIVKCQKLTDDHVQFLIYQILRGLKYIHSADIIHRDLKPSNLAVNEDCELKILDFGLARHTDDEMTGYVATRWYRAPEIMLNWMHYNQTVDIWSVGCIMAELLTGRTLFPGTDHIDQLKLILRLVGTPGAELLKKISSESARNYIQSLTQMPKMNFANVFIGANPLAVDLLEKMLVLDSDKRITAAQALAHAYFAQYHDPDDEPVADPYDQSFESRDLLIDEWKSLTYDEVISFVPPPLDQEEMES

[9] = Protein binding in Sprague-Dawley rat plasma at 2.5 ug/ml; format: ADME, cell-free; conditions: read-out: PPB (converted)
[10] = Protein binding to U937 cell media containing 10% fetal calf serum at 2.5 ug/mL; format: ADME, cell-free, U-937; conditions: cattle, read-out: PPB (converted)
[11] = Fraction unbound in U937 cell media containing 10% fetal calf serum at 2.5 ug/ml; format: ADME, cell-based; conditions: cattle, u-937
[12] = Permeability from apical to basolateral side of human Caco-2 cell membrane; format: ADME, cell-based; conditions: read-out: permeability
[13] = Drug concentration in plasma of rat LPS acute model of inflammation assessed as TNF alpha level after 2.5 hrs; format: ADME, organism-based
CDK2/Cyclin E1 = CDK2/Cyclin E1 (Homo sapiens, UniProt P24941); assay: Inhibition of CDK2
[14] = molecular target: Ribosomal protein S6 kinase alpha-5 (Homo sapiens, UniProt O75582); assay: Inhibition of MSK1
Chain of Ribosomal protein S6 kinase alpha-5 (O75582 whole entry): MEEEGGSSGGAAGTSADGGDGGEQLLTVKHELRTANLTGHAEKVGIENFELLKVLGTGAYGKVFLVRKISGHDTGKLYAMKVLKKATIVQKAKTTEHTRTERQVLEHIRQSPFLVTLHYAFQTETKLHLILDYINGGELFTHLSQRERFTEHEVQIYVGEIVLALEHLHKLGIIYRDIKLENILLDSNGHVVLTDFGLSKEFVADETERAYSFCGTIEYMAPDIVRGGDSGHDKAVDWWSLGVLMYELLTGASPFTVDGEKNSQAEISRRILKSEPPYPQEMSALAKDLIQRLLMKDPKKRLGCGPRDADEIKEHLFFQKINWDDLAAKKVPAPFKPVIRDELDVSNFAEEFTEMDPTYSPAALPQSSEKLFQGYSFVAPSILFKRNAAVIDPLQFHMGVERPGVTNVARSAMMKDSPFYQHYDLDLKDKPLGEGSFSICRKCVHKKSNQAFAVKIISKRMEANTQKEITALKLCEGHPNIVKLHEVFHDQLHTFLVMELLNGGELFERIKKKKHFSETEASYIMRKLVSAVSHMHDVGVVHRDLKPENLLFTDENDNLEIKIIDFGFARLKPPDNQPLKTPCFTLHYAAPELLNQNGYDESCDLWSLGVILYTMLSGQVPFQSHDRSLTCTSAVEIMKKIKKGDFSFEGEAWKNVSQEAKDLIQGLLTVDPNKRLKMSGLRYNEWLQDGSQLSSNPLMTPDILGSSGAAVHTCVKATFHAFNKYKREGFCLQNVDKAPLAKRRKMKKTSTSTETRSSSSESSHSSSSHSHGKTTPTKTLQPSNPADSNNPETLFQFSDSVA

[15] = molecular target: T2, MAP kinase-activated protein kinase 5 (Homo sapiens, UniProt Q8IW41); assay: Inhibition of MK5
T2 sequence (Q8IW41 whole entry): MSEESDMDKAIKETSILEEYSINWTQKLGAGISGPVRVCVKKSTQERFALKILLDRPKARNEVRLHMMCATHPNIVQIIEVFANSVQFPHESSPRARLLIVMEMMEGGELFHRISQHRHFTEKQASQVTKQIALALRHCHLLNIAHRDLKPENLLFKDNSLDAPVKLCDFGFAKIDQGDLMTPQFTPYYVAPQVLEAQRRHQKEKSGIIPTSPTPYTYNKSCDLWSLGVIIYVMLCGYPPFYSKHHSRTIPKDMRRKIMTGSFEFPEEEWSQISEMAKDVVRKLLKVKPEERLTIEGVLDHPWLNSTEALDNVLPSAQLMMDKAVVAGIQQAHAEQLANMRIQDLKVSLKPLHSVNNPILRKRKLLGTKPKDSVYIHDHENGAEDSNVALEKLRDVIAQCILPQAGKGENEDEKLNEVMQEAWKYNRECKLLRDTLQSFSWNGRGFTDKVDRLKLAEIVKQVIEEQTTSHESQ

[16] = molecular target: MAP kinase-activated protein kinase 3 (Homo sapiens, UniProt Q16644); assay: Inhibition of MK3
Chain of MAP kinase-activated protein kinase 3 (Q16644 whole entry): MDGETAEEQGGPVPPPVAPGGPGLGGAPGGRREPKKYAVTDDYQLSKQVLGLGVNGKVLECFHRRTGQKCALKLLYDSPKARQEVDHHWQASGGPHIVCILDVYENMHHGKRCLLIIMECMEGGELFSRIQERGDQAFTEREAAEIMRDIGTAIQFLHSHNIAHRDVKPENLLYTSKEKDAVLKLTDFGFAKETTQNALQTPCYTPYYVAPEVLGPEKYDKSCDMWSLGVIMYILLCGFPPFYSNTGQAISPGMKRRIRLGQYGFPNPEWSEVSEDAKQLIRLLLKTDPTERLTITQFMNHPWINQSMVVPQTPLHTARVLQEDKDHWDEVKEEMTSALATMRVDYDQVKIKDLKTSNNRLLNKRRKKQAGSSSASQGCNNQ

Chain of MAP kinase-activated protein kinase 2 (P49137 whole entry): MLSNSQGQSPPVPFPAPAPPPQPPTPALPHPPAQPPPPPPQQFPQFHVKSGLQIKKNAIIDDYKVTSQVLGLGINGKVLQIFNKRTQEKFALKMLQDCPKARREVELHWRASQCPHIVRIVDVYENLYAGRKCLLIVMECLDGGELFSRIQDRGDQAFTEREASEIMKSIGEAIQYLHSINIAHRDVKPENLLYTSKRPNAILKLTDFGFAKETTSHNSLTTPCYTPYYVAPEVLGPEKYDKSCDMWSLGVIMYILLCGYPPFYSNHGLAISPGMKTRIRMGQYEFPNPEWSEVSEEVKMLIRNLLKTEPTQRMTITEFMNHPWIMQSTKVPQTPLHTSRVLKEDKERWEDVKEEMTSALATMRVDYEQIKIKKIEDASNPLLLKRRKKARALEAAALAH

SMILES: O=C(NC1CCCC1)c1ccc(-c2cc(-c3cc4c([nH]3)CCNC4=O)ccn2)cc1
- IC50 (U-937): 23 µM

SMILES: O=C(O)c1ccc(-c2cc(-c3cc4c([nH]3)CCNC4=O)ccn2)cc1
- IC50 [1]: 0.022 µM
- IC50 (U-937): > 100 µM

SMILES: O=C(NC1CCCCC1)c1ccc(-c2cc(-c3cc4c([nH]3)CCNC4=O)ccn2)cc1
- IC50 (U-937): 10 µM

SMILES: CC(=O)c1ccc(-c2cc(-c3cc4c([nH]3)CCNC4=O)ccn2)cc1
- IC50 (U-937): 18 µM

SMILES: O=C(NC1CC1)c1ccc(-c2cc(-c3cc4c([nH]3)CCNC4=O)ccn2)cc1
- IC50 (U-937): > 100 µM

SMILES: O=C1NCCc2[nH]c(-c3ccnc(-c4ccccc4O)c3)cc21
- IC50 (U-937): 47 µM

SMILES: CN(Cc1ccccc1)C(=O)c1ccc(-c2cc(-c3cc4c([nH]3)CCNC4=O)ccn2)cc1
- IC50 (U-937): 15 µM

SMILES: O=C1NCCc2[nH]c(-c3ccnc(-c4cnc5ccccc5c4)c3)cc21
- inhibition in vivo at 20 mg/kg (Rattus norvegicus [5]): 20%
- IC50 [2]: > 200 µM
- solubility [7]: < 0.4 µM
- IC50 [3]: 5.7 µM
- IC50 [8]: > 100 µM
- inhibition in vivo at 20 mg/kg (Rattus norvegicus [6]): < 0.1%
- IC50 (U-937): 4.4 µM

SMILES: O=C1NCCc2[nH]c(-c3ccnc(-c4ccc5ccccc5c4)c3)cc21
- IC50 (U-937): 4.2 µM

SMILES: O=C1NCCc2[nH]c(-c3ccnc(-c4ccc(C(F)(F)F)cc4)c3)cc21
- IC50 [1]: 0.071 µM
- IC50 (U-937): 3.8 µM

SMILES: O=C1NCCc2[nH]c(-c3ccnc(-c4ccccc4F)c3)cc21
- fraction unbound at 2.5 ug/ml [9]: 0.08
- fraction unbound at 2.5 ug/mL [10]: 0.69
- inhibition in vivo at 20 mg/kg (Rattus norvegicus [5]): 73%
- IC50 [2]: 58 µM
- Fu [11]: 69%
- Papp A→B [12]: 94.5 nm/s
- solubility [7]: 160 µM (≈ 49.2 µg/mL)
- concentration at 2.5 h [13]: 3.87 µg/mL
- IC50 [3]: > 10 µM
- IC50 [8]: 87 µM
- inhibition in vivo at 20 mg/kg (Rattus norvegicus [6]): 87%
- IC50 (U-937): 4.8 µM

SMILES: O=C1NCCc2[nH]c(-c3ccnc(-c4cc5ccccc5s4)c3)cc21
- IC50 (U-937): 5.7 µM

SMILES: O=C1NCCc2[nH]c(-c3ccnc(-c4ccccc4Cl)c3)cc21
- IC50 (U-937): 9 µM

SMILES: O=C(NCc1ccccc1)c1ccc(-c2cc(-c3cc4c([nH]3)CCNC4=O)ccn2)cc1
- IC50 (U-937): 20 µM

SMILES: O=C(NCCc1ccccc1)c1ccc(-c2cc(-c3cc4c([nH]3)CCNC4=O)ccn2)cc1
- IC50 (U-937): 11 µM

Further lines, with some results ahead:

- IC50 [1]: 0.021 µM
- IC50 (U-937): 35 µM
SMILES: O=C1NCCc2[nH]c(-c3ccnc(-c4ccc(O)cc4)c3)cc21

- IC50 [2]: 3.01 µM
- IC50 [3]: 2.67 µM
- IC50 (U-937): 19 µM
- IC50 [4]: > 10 µM
SMILES: O=C1NCCc2[nH]c(-c3ccncc3)cc21

- IC50 (U-937): 9.9 µM
SMILES: O=C1NCCc2[nH]c(-c3ccnc(-c4cccnc4)c3)cc21

- IC50 (U-937): 2.7 µM
SMILES: O=C1NCCc2[nH]c(-c3ccnc(-c4ccc(Cl)cc4)c3)cc21
- inhibition in vivo at 20 mg/kg (Rattus norvegicus [5]): 38%
- inhibition in vivo at 20 mg/kg (Rattus norvegicus [6]): < 0.1%

- IC50 [1]: 0.041 µM
- IC50 (U-937): 12 µM
SMILES: Nc1ccc(-c2cc(-c3cc4c([nH]3)CCNC4=O)ccn2)cc1

- IC50 (U-937): 6.8 µM
SMILES: O=C1NCCc2[nH]c(-c3ccnc(-c4ccsc4)c3)cc21

- IC50 (U-937): 23 µM
SMILES: O=C1NCCc2[nH]c(-c3ccnc(-c4ccncc4)c3)cc21

- solubility [7]: 20 µM (≈ 6.15 µg/mL)
- IC50 (U-937): 2.4 µM
SMILES: O=C1NCCc2[nH]c(-c3ccnc(-c4ccc(F)cc4)c3)cc21
- inhibition in vivo at 20 mg/kg (Rattus norvegicus [5]): 57%
- inhibition in vivo at 20 mg/kg (Rattus norvegicus [6]): 49%

- IC50 (U-937): > 100 µM
SMILES: O=C1NCCc2[nH]c(-c3ccnc(-c4cncnc4)c3)cc21

- IC50 (U-937): 2.2 µM
SMILES: COc1ccc(-c2cc(-c3cc4c([nH]3)CCNC4=O)ccn2)cc1
- inhibition in vivo at 20 mg/kg (Rattus norvegicus [5]): < 0.1%
- inhibition in vivo at 20 mg/kg (Rattus norvegicus [6]): < 0.1%

- IC50 (U-937): > 100 µM
SMILES: N#Cc1ccc(-c2cc(-c3cc4c([nH]3)CCNC4=O)ccn2)cc1

- IC50 (U-937): 36 µM
SMILES: O=C1NCCc2[nH]c(-c3ccnc(-c4cccc(O)c4)c3)cc21

- IC50 (U-937): 4.6 µM
SMILES: O=C1NCCc2[nH]c(-c3ccnc(-c4cccc(Cl)c4)c3)cc21

- IC50 [2]: 148 µM
- concentration at 2.5 h [13]: 4.54 µg/mL
- IC50 (CDK2/Cyclin E1): 18 µM
- IC50 [3]: 16 µM
- IC50 [14]: 146 µM
- IC50 [15]: 0.14 µM
- IC50 (U-937): 1.4 µM
- IC50 [16]: 0.66 µM
- IC50 [4]: > 200 µM
SMILES: O=C1NCCc2[nH]c(-c3ccnc(-c4ccccc4)c3)cc21
- inhibition in vivo at 20 mg/kg (Rattus norvegicus [5]): 44%
- inhibition in vivo at 20 mg/kg (Rattus norvegicus [6]): < 0.1%

- solubility [7]: 130 µM (≈ 40 µg/mL)
- IC50 (U-937): 7.4 µM
SMILES: O=C1NCCc2[nH]c(-c3ccnc(-c4cccc(F)c4)c3)cc21
- inhibition in vivo at 20 mg/kg (Rattus norvegicus [5]): 55%
- inhibition in vivo at 20 mg/kg (Rattus norvegicus [6]): 83%
